Laboratory results: article PMC5835169 (Clinical microbiology and infection : the official …, 2017)
≈ marks a conversion by molar mass, not a printed value. Where no end group is shown, it is not given here.

How the values were obtained:
[1] = system: mouse lungs; test: Pulmonary toxicity in uninfected mice; assay type: in vivo, C57BL/6J mice; conditions: for pulmonary toxicity: 0.35 mg/kg i.t., total inflammatory cells, differential cell counts, inflammation-associated genes; for effect on cell differential and inflammatory mediators in the lungs: uninfected mice, 7µg i.t. (7 times the minimum effective dose), 24h
[2] = system: P. aeruginosa TRPA108; assay type: cell-based; conditions: MDR strain TRPA108 isolated from cystic fibrosis patients
[3] = system: P. aeruginosa P003; assay type: cell-based; conditions: MDR strain P003 isolated from cystic fibrosis patients
[4] = system: P. aeruginosa TRPA111; assay type: cell-based; conditions: MDR strain TRPA111 isolated from cystic fibrosis patients
[5] = system: P. aeruginosa P002; assay type: cell-based; conditions: MDR strain P002 isolated from cystic fibrosis patients
[6] = system: differentiated primary HBE cells; test: Transepithelial Electrical Resistance; assay type: cell-based, human; conditions: apical, 24 hours after administration
[7] = system: P. aeruginosa P001; assay type: cell-based; conditions: MDR strain P001 isolated from cystic fibrosis patients
[8] = system: P. aeruginosa P005; assay type: cell-based; conditions: MDR strain P005 isolated from cystic fibrosis patients
[9] = system: P. aeruginosa TRPA321; assay type: cell-based; conditions: MDR strain TRPA321 isolated from cystic fibrosis patients
[10] = system: P. aeruginosa P004; assay type: cell-based; conditions: MDR strain P004 isolated from cystic fibrosis patients
[11] = system: P. aeruginosa PAO1; assay type: cell-based; conditions: control strain PAO1 susceptible to antibiotics and AMPs
[12] = system: HBE cells; test: Toxicity to HBE cells; assay type: cell-based, human; conditions: 16µM

Compound	pulmonary toxicity [1]	effect on cell differential and inflammatory mediators in the lungs [1]	MIC [2] [µM]	MIC [3] [µM]	MIC [4] [µM]	MIC [5] [µM]	final reduction in TEER / recovery ([6]; 32µM peptide in PBS)	final reduction in TEER / recovery ([6]; 64µM peptide in PBS)	MIC [7] [µM]	MIC [8] [µM]	MIC [9] [µM]	MIC [10] [µM]	MIC [11] [µM]	toxicity to HBE cells [12]
CC[C@H](C)[C@H](NC(=O)[C@H](CCCCN)NC(=O)[C@H](CCC(=O)O)NC(=O)[C@H](CCCCN)NC(=O)[C@H](CO)NC(=O)[C@H](CCCCN)NC(=O)[C@H](CCCNC(=N)N)NC(=O)[C@H](Cc1ccccc1)NC(=O)[C@H](Cc1ccccc1)NC(=O)[C@H](CC(=O)O)NC(=O)CNC(=O)[C@H](CC(C)C)NC(=O)[C@@H](N)CC(C)C)C(=O)NCC(=O)N[C@@H](CCCCN)C(=O)N[C@@H](CCC(=O)O)C(=O)N[C@@H](Cc1ccccc1)C(=O)N[C@@H](CCCCN)C(=O)N[C@@H](CCCNC(=N)N)C(=O)N[C@H](C(=O)N[C@H](C(=O)N[C@@H](CCC(N)=O)C(=O)N[C@@H](CCCNC(=N)N)C(=O)N[C@H](C(=O)N[C@@H](CCCCN)C(=O)N[C@@H](CC(=O)O)C(=O)N[C@@H](Cc1ccccc1)C(=O)N[C@@H](CC(C)C)C(=O)N[C@@H](CCCNC(=N)N)C(=O)N[C@@H](CC(N)=O)C(=O)N[C@@H](CC(C)C)C(=O)N[C@H](C(=O)N1CCC[C@H]1C(=O)N[C@@H](CCCNC(=N)N)C(=O)N[C@H](C(=O)N[C@@H](CCC(=O)O)C(=O)N[C@@H](CO)C(=O)O)[C@@H](C)O)C(C)C)[C@@H](C)CC)C(C)C)[C@@H](C)CC [LL37, reference compound]	does not cause pulmonary toxicity	no effect	2 (≈ 8.99 µg/mL)	32 (≈ 144 µg/mL)	2 (≈ 8.99 µg/mL)	32 (≈ 144 µg/mL)	1/2	2/3	32 (≈ 144 µg/mL)	8 (≈ 35.9 µg/mL)	32 (≈ 144 µg/mL)	8 (≈ 35.9 µg/mL)	–	–
RRWVRRVRRVWRRVVRVVRRWVRR [WLBU2]	does not cause pulmonary toxicity	no effect	1	6	1	4	completely recovered	completely recovered	6	2	2	2	2	not toxic
